Patent US10555987B2, “GHRH agonists for the treatment of ischemic disorders” (UNIVERSITY OF MIAMI, priority 2012, dated 2020)
Non-standard residues stand in square brackets, D forms with d. Residues, ends and D or L forms follow the SMILES beside them. *: point of attachment. Desaminotyrosyl = O=C(CCc1ccc(O)cc1)*; NMeY = CN[C@@H](Cc1ccc(O)cc1)C(=O)O; Agmatine = N=C(N)NCCCCN*; Nle = CCCC[C@H](N)C(=O)O; Orn = NCCC[C@H](N)C(=O)O; Abu = CC[C@H](N)C(=O)O

Columns and labels:
[1] = target: T1, GHRH receptor (Homo sapiens, UniProt Q02643); assay: GHRH receptor binding, competition with 125I-labeled [His1,Nle27]hGHRH(1-32)NH2, human pituitary membrane homogenates (Table 6); set-up: Normal human pituitaries were purchased from the National Hormone and Peptide Program; tissue National Hormone and Peptide Program (A.F. Parlow, Harbor-UCLA Medical Center, Torrance, Calif.); host or cells: normal human pituitary, membrane fraction
T1 sequence (Q02643 23-423): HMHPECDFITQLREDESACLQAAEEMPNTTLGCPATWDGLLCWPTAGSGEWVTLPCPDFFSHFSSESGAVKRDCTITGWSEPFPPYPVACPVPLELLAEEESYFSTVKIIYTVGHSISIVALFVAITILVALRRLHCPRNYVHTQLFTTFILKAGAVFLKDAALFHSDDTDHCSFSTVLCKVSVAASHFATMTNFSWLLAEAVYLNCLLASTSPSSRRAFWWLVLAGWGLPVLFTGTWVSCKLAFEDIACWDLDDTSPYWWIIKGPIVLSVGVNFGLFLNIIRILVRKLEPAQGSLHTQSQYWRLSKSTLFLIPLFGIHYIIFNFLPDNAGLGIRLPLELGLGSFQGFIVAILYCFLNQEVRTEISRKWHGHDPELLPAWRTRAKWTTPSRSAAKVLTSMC
Source text: Normal human pituitaries were purchased from the National Hormone and Peptide Program (A.F. Parlow, Los Angeles, County Harbor-UCLA Medical Center, Torrance, Calif.).

[2] = system: myocardial infarction (Fisher-344 rats); assay: Echocardiography in rat myocardial infarction model, treatment from 4 weeks post-MI (Example 13); assay type: in vivo; details: mean ± SEM; for EF (4 Weeks): 50 μg/kg s.c. twice daily for 4 weeks; for EF (Baseline): ejection fraction at baseline
Method: Myocardial infarction (MI) was induced by permanent ligation of the left coronary artery in female 6-month-old Fisher-344 rats. Animals were randomly assigned to receive placebo (DMSO+propylene glycol) or one of the GHRH-agonists (JI-38, MR-356/P-20356, MR-409/P-27409, all 50 μg/kg), starting 4 weeks post-MI. All treatment was given subcutaneously twice daily for 4 weeks.
Echocardiographic measurements were obtained at baseline, 2 days, 1, 2 and 4 weeks. Echocardiographic assessments were performed in anesthetized rats (2% isoflurane inhalation) using a Vevo-770 echocardiogram (Visual Sonics Inc., Toronto, Ontario, Canada) equipped with a 17.5-MHz transducer. Cardiac dimensions: LV end diastolic (LVEDD), end systolic (LVESD) diameters and fractional shortening (FS) were recorded from M-mode images using averaged measurements from 3 to 5 consecutive cardiac cycles according to the American Society of Echocardiography. Ejection fraction (EF) was calculated from bi-dimensional long-axis parasternal views taken through the infarcted area. All images were analyzed using Vevo 770 3.0.0 software (Visual Sonics Inc., Toronto, Ontario, Canada).

[3] = system: superfused rat pituitary cells; assay: GH release in superfused rat pituitary cell system (Table 4); assay type: cell-based; details: 1 nM; for GH Response (ng/ml), column 1: replicate 1; for GH Response (ng/ml), column 2: replicate 2; for GH Response (ng/ml), column 3: replicate 3
Method: Growth hormone releasing activity. Growth hormone releasing was assayed by using a superfused rat pituitary cell system as described in S. Vigh and A. V. Schally, Peptides 5, Suppl: 241-347, 1984. The new synthetic peptide analog of hGHRH P20356 and JI-38 (as control) were administered for 3 minutes (1 mL perfusate) at 1 nM concentration as shown below. Fractions of 1 ml are collected and the GH content in each was determined by ELISA.
Pituitary cells from 2 male rats were used for each channel of the superfusion system. The cells were exposed to 3-min pulses of the new GHRH agonists or to JI-38 as standard every 30 min. Outflowing samples of each channel (1 ml) were collected every 3 min, and GH levels were determined by ELISA.

[4] = system: nitrosoglutathione reductase-/- (GSNOR-/-) mesenchymal stem cells (MSCs); assay: Tube formation of GSNOR-/- mesenchymal stem cells in Matrigel; assay type: cell-based, mouse; details: GSNOR-/- MSCs on Matrigel, 6 to 24 hours
Method: Bone marrow-derived MSCs isolated from wildtype and GSNOR^−/− mice were grown in endothelial growth media (EGM-2, Lonza Biotech) for a period of 1 week. Cells were harvested by brief trypsinization and plated in 24-well culture dishes (5×10^4 cells/well) pre-coated with 300 μl of Matrigel (BD Biosciences). Cells were incubated in endothelial basal media (Lonza Biotech) supplemented with 0.1% bovine serum albumin, in the presence or absence of GHRH agonist peptides P-20356 and P-27409. After 6 to 24 hours, tube formation potential was quantified in each sample by measuring the number and length of tubes formed using Image J Software (NIH).

[5] = fraction 1 (P-20356)/21 (JI-38)
[6] = fraction 2 (P-20356)/22 (JI-38)
[7] = fraction 3 (P-20356)/23 (JI-38)
[8] = fraction 4 (P-20356)/24 (JI-38)
[9] = fraction 5 (P-20356)/25 (JI-38)

CCCC[C@H](NC(=O)[C@@H](NC(=O)[C@H](CC(=O)O)NC(=O)[C@H](CCC(N)=O)NC(=O)[C@H](CC(C)C)NC(=O)[C@H](CC(C)C)NC(=O)[C@H](CCCN)NC(=O)[C@H](CCCNC(=N)N)NC(=O)[C@H](C)NC(=O)[C@H](CO)NC(=O)[C@H](CC(C)C)NC(=O)[C@H](CCC(N)=O)NC(=O)[C@H](CC)NC(=O)[C@H](CC(C)C)NC(=O)[C@@H](NC(=O)[C@H](CCCN)NC(=O)[C@H](CCCNC(=N)N)NC(=O)[C@H](Cc1ccc(O)cc1)NC(=O)[C@H](CO)NC(=O)[C@H](CCC(N)=O)NC(=O)[C@@H](NC(=O)[C@H](Cc1ccccc1)NC(=O)[C@@H](NC(=O)[C@H](C)NC(=O)[C@H](CC(=O)O)NC(=O)[C@H](C)NC(=O)CCc1ccc(O)cc1)[C@@H](C)CC)[C@@H](C)O)C(C)C)[C@@H](C)CC)C(=O)N[C@@H](CC(=O)O)C(=O)NCCCCNC(=N)N [JI-38, [Dat^1, Gln^8, Orn^12,21, Abu^15, Nle^27, Asp^28, Agm^29]hGHRH(1-29)NH2, reference compound] (Desaminotyrosyl-ADAIFTQSYR[Orn]VL[Abu]QLSAR[Orn]LLQDI[Nle]D-Agmatine)
IC50 ([1]; 125I-[His1,Nle27]hGHRH(1-32)NH2, human pituitary membranes, Table 6): 1.95 nM
Relative affinity (Binding potency) vs GHRH ([1]; GHRH(1-29) = 1, Table 6): 3.03
Relative affinity (Binding potency) vs JI-38 ([1]; JI-38 = 1, Table 6): 1
EF (4 Weeks) [2]: 47 ± 2.4 %
EF (Baseline) [2]: 88 ± 1.2%
GH Response (ng/ml), Average [3, 5]: 49.27 ng/mL
GH Response (ng/ml), column 1 [3, 5]: 42.46 ng/mL
GH Response (ng/ml), column 2 [3, 5]: 56.07 ng/mL
GH Response (ng/ml), Average [3, 6]: 131.71 ng/mL
GH Response (ng/ml), column 1 [3, 6]: 143.58 ng/mL
GH Response (ng/ml), column 2 [3, 6]: 119.83 ng/mL
GH Response (ng/ml), Average [3, 7]: 194.68 ng/mL
GH Response (ng/ml), column 1 [3, 7]: 222.13 ng/mL
GH Response (ng/ml), column 2 [3, 7]: 167.23 ng/mL
GH Response (ng/ml), Average [3, 8]: 137.45 ng/mL
GH Response (ng/ml), column 1 [3, 8]: 142.96 ng/mL
GH Response (ng/ml), column 2 [3, 8]: 131.93 ng/mL
GH Response (ng/ml), Average [3, 9]: 96.70 ng/mL
GH Response (ng/ml), column 1 [3, 9]: 96.34 ng/mL
GH Response (ng/ml), column 2 [3, 9]: 97.05 ng/mL

CCCC[C@H](NC(=O)[C@@H](NC(=O)[C@H](CC(=O)O)NC(=O)[C@H](CCC(N)=O)NC(=O)[C@H](CC(C)C)NC(=O)[C@H](CC(C)C)NC(=O)[C@H](CCCN)NC(=O)[C@H](CCCNC(=N)N)NC(=O)[C@H](C)NC(=O)[C@H](CO)NC(=O)[C@H](CC(C)C)NC(=O)[C@H](CCC(N)=O)NC(=O)[C@H](CC)NC(=O)[C@H](CC(C)C)NC(=O)[C@@H](NC(=O)[C@H](CCCN)NC(=O)[C@H](CCCNC(=N)N)NC(=O)[C@H](Cc1ccc(O)cc1)NC(=O)[C@H](CO)NC(=O)[C@H](CCC(N)=O)NC(=O)[C@@H](NC(=O)[C@H](Cc1ccccc1)NC(=O)[C@@H](NC(=O)[C@H](C)NC(=O)[C@H](CC(=O)O)NC(=O)[C@H](C)NC(=O)[C@H](Cc1ccc(O)cc1)NC)[C@@H](C)CC)[C@@H](C)O)C(C)C)[C@@H](C)CC)C(=O)N[C@@H](CC(=O)O)C(=O)NCCCCNC(=N)N [Peptide P-20356, [N—Me-Tyr^1, Gln^8, Orn^12, Abu^15, Orn^21, Nle^27, Asp^28, Agm^29]hGHRH(1-29) NH2] (H-[NMeY]ADAIFTQSYR[Orn]VL[Abu]QLSAR[Orn]LLQDI[Nle]D-Agmatine)
EF (4 Weeks) [2]: 51 ± 2.7 %
EF (Baseline) [2]: 88 ± 0.6%
GH-releasing potency in vitro, times more potent than JI-38 ([3]; superfused rat pituitary cells): about 3
GH Response (ng/ml), Average [3, 5]: 52.45 ng/mL
GH Response (ng/ml), column 1 [3, 5]: 49.98 ng/mL
GH Response (ng/ml), column 2 [3, 5]: 54.99 ng/mL
GH Response (ng/ml), column 3 [3, 5]: 52.37 ng/mL
GH Response (ng/ml), Average [3, 6]: 337.48 ng/mL
GH Response (ng/ml), column 1 [3, 6]: 310.58 ng/mL
GH Response (ng/ml), column 2 [3, 6]: 325.76 ng/mL
GH Response (ng/ml), column 3 [3, 6]: 376.11 ng/mL
GH Response (ng/ml), Average [3, 7]: 556.46 ng/mL
GH Response (ng/ml), column 1 [3, 7]: 491.01 ng/mL
GH Response (ng/ml), column 2 [3, 7]: 602.1 ng/mL
GH Response (ng/ml), column 3 [3, 7]: 576.26 ng/mL
GH Response (ng/ml), Average [3, 8]: 334.99 ng/mL
GH Response (ng/ml), column 1 [3, 8]: 399.95 ng/mL
GH Response (ng/ml), column 2 [3, 8]: 270.02 ng/mL
GH Response (ng/ml), Average [3, 9]: 197.91 ng/mL
GH Response (ng/ml), column 1 [3, 9]: 200.64 ng/mL
GH Response (ng/ml), column 2 [3, 9]: 195.18 ng/mL
Tube formation [4]: formed tube-like structures similar to wildtype MSCs

CCCC[C@H](NC(=O)[C@@H](NC(=O)[C@H](CC(=O)O)NC(=O)[C@H](CCC(N)=O)NC(=O)[C@H](CC(C)C)NC(=O)[C@H](CC(C)C)NC(=O)[C@H](CCCN)NC(=O)[C@H](CCCNC(=N)N)NC(=O)[C@H](C)NC(=O)[C@H](CO)NC(=O)[C@H](CC(C)C)NC(=O)[C@H](CCC(N)=O)NC(=O)[C@H](CC)NC(=O)[C@H](CC(C)C)NC(=O)[C@@H](NC(=O)[C@H](CCCN)NC(=O)[C@H](CCCNC(=N)N)NC(=O)[C@H](Cc1ccc(O)cc1)NC(=O)[C@H](CO)NC(=O)[C@H](CC(N)=O)NC(=O)[C@@H](NC(=O)[C@H](Cc1ccccc1)NC(=O)[C@@H](NC(=O)[C@H](C)NC(=O)[C@H](CC(=O)O)NC(=O)[C@@H](C)NC(=O)[C@H](Cc1ccc(O)cc1)NC)[C@@H](C)CC)[C@@H](C)O)C(C)C)[C@@H](C)CC)C(=O)N[C@@H](CC(=O)O)C(=O)N[C@@H](CCCNC(=N)N)C(=O)NC [Peptide P-27409, [N—Me-Tyr^1, D-Ala^2, Orn^12, Abu^15, Orn^21, Nle^27, Asp^28]hGHRH(1-29)NH—CH3] (H-[NMeY][dA]DAIFTNSYR[Orn]VL[Abu]QLSAR[Orn]LLQDI[Nle]DR-NHMe)
EF (4 Weeks) [2]: 48 ± 2.8 %
EF (Baseline) [2]: 90 ± 0.8%
Tube formation [4]: formed tube-like structures similar to wildtype MSCs
